We go through two molecules from article PMC9728921, “Characterization of a KDM5 small molecule inhibitor with antiviral activity against hepatitis B virus” (PLOS ONE, 2022).

Each structure is given as a SMILES string.

For data set [1], the system named is host and viral transcriptomes in PHH. The data set is described as follows: RNA-seq of HBV-infected PHH. In kind it is cell-based, human. The following applies: 0.03, 0.3, or 10 μM; days 1, 3, 10, 13. How it is done:
(D) Hallmark Gene Set. […] For comparison, downregulation of HBV mRNA for same dose and time regiment is shown at the top.
Library building and sequencing for RNA-seq of PHH and rat liver was performed on all samples at EA Genomics/Q2 Solutions (Morrisville, NC). Approximately 100 mg of rat liver tissue from the left later lobe was flash frozen immediately after collection. PHH were lysed into RLT buffer (Qiagen; 79216) and immediately frozen. Liver/PHH samples were homogenized in QIAzol Lysis Reagent (79306) and after addition of chloroform the samples were separated into aqueous and organic phases by centrifugation. Ethanol was added to the upper aqueous phase and the sample was applied to an RNeasy Mini spin column (74104) for purification and RNA eluted with water. Libraries were prepared using the Illumina TruSeq stranded mRNA sample preparation kit according to the manufacturer’s protocol (Illumina, Inc., Hayward, CA; RS-122-2103). Approximately 30 million 2 x 50 bp paired-end reads were collected per sample using the Illumina HiSeq2000 sequencing platform. Sequencing reads were aligned to the human, rat, or HBV genomes by STAR [49]. The Bioconductor packages edgeR [50] and limma were used to normalize sequence count data (counts per million; cpm) and conduct differential gene expression analysis. The false discovery rate (FDR) was calculated using the Benjamini-Hochberg method.

The target of the next data set is T1, PRMT4 (Homo sapiens, UniProt Q86X55).
T1 construct: 2-608
T1 sequence (Q86X55 2-608): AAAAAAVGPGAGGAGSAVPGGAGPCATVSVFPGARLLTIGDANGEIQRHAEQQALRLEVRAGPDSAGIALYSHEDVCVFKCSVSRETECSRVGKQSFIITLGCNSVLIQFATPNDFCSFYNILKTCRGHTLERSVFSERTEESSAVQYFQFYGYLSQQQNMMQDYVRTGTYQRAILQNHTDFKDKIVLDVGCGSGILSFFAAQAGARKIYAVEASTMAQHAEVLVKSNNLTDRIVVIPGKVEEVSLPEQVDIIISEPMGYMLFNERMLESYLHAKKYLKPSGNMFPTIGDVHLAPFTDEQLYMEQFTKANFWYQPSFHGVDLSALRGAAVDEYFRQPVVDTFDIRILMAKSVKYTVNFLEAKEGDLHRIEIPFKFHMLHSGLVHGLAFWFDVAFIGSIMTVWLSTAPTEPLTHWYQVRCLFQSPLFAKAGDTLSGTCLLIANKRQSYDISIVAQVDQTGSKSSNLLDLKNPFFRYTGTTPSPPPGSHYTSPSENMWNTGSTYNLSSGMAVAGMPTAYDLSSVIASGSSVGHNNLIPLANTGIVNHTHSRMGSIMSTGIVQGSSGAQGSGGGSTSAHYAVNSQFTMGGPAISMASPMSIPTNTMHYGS
Briefly: Histone methyltransferase enzymatic assay, PRMT4. Type of data set: biochemical. The following applies: enzyme conc. 100 nM. How it is done: (§1) Histone methyltransferase assays were performed in 96-well half-area optiplates (PerkinElmer) at room temperature. All concentrations are final unless noted otherwise. Compounds were serially diluted in DMSO and the final DMSO concentration was 1%. A 24 μL reaction mixture contained compound, enzyme, 200 nM of nucleosome or histone substrate, 400 nM ^3H-SAM (83.1 Ci/mmol), 50 mM Tris-HCl (pH 8.0), 50 mM NaCl, 5 mM MgCl2, 1 mM DTT, and 0.01% Tween-20. The plate was sealed, mixed on a Titramax plate shaker at 1200 rpm for 30 sec, and incubated at room temperature for 60 min. The reaction was quenched by addition of 24 μL mixture containing 5 mg/mL PVT-PEI beads and 300 μM unlabeled SAM in water. The plate was sealed, mixed as previously noted, incubated overnight, and read on a TopCount plate reader (PerkinElmer).
(§2) Data was analyzed using GraphPad Prism 6.0 (La Jolla, CA). […] IC50 values were calculated as an average of at least two independent experiments.

A further data set concerns the target T2, EZH2/EED/SUZ12 (Homo sapiens, UniProt O75530+Q15022+Q15910).
T2 construct: 2-746/2-441/2-739; purchased BPS
Briefly: Histone methyltransferase enzymatic assay, EZH2/EED/SUZ12. In kind it is biochemical. The following applies: enzyme conc. 100 nM. How it is done: as §1, §2

The target in another data set is KDM3A (Homo sapiens, UniProt Q9Y4C1). Briefly: KDM3A enzymatic assay (AlphaLISA). In kind it is biochemical. How it is done: The following assay protocol was used for all histone demethylases tested except KDM1A, KDM5A, B, and D, which are described below. Compounds were serially diluted into a 384-well Alpha plate as a DMSO solution and mixed with 5 μL reaction buffer (buffer A) containing 50 mM HEPES (pH 7.0), 0.1% BSA, and 0.003% Tween-20. The enzyme of interest was pre-incubated with 15 μM of Fe^2+ for 10 min (except 30 min for KDM2B) in reaction buffer A. 5 μL of the enzyme mixture was added to each of the compound-containing wells and incubated for 10 min. The reaction was started by addition of a 5 μL mixture containing 300 nM peptide substrate, 75 μM L-ascorbic acid, and 30 μM α-ketoglutarate in buffer A. This final 15 μL of reaction mixture was incubated for 20 min for KDM5B and 1 hour for the other KDM enzymes. The reaction was quenched with 10 μL of diluted AlphaLISA Acceptor beads (1:400) in Epigenetics Buffer and incubated for 60 min. The Donor beads were diluted 1:400 into Epigenetics Buffer in the dark and 10 μL of this was added to each well and incubated for another 60 min in the dark. The assay plates were read on an Enspire plate reader (PerkinElmer) using a standard AlphaLISA program.
Sequence of KDM3A (Q9Y4C1 whole entry): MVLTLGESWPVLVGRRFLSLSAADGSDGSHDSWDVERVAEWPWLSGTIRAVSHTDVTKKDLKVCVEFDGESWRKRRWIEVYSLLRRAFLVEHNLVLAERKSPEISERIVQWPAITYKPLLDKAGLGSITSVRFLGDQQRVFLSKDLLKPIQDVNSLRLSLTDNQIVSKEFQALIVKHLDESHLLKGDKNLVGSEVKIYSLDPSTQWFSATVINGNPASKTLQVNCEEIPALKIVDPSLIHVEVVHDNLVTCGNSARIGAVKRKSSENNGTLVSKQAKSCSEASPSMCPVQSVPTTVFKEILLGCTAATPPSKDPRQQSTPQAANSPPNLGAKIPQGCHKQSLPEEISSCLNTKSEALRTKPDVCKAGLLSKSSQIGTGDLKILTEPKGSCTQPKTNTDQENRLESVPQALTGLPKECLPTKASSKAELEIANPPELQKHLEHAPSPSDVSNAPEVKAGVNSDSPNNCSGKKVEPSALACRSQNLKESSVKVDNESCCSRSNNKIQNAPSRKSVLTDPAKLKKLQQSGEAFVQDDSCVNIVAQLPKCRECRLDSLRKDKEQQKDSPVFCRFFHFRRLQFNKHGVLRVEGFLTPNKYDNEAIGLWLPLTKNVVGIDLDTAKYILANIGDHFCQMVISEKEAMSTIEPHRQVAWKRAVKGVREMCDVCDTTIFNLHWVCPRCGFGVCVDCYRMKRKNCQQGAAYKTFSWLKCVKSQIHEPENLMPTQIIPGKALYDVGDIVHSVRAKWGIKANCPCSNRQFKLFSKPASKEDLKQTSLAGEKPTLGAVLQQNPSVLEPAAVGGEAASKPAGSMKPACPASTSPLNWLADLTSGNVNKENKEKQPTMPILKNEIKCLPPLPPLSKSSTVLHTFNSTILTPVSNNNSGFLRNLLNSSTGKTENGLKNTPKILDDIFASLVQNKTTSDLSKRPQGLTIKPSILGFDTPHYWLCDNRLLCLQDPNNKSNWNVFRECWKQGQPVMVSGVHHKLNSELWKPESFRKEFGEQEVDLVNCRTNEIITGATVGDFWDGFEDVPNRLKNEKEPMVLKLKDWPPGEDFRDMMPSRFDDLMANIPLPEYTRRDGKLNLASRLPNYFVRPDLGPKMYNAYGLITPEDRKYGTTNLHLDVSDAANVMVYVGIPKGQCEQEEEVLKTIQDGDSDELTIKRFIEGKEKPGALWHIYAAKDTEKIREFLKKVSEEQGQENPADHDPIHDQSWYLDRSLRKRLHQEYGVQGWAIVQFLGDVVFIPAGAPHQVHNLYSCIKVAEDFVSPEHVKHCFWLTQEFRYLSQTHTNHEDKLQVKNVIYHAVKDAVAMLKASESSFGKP
as §2
A general note: In Alpha technology, singlet oxygen from a donor bead excites a nearby acceptor bead.

The nature of data set [2]: Liver to plasma AUC ratio, rat. In kind it is in vivo, Sprague Dawley rats. The note with it: male, Sprague Dawley, liver and plasma, po, 1 mg/kg, read-out: GS-080 liver to plasma AUC ratio. How it is done: Rats and monkeys were dosed by oral gavage once with 1 mg/kg or 2.5 mg/kg, respectively. The rat study included a vehicle control group (water). Serial venous blood samples were taken at 0, 0.25, 0.5, 1, 2, 4, 6, 8, 12, and 24 hours post dose from each animal and collected into vacutainer tubes containing potassium oxalate/sodium fluoride (Thermo Fisher; BD367925) as the anti-coagulant and blood was centrifuged for plasma isolation. […] For monkey, liver samples were taken by biopsy at pre-dose, 1, 4, 24, 48, and 72 hours post dose (n = 2 per time point). Rat and monkey livers were weighed and immediately flash frozen in liquid nitrogen.
500 μL of cold HPLC grade water was added to each monkey liver biopsy sample and rat liver samples were diluted 3-fold with cold HPLC grade water. Diluted liver samples were homogenized between 1 and 3 minutes. 50 μL of plasma samples and homogenized liver samples were quenched with 200 μL of 0.05% formic acid in acetonitrile. […] An Agilent 1200 series binary pump (Santa Clara, CA; G1312A) was used for elution and separation of compounds with a Hypersil Gold C18 HPLC column (Thermo Fisher; 50 x 3.0 mm, 5 μm) over 6.75 minutes with 99–3% gradient of Mobile Phase A (1% acetonitrile in 2.5 mM ammonium formate aqueous solution pH 2.6) and 1–97% gradient Mobile Phase B (90% acetonitrile in aqueous 10 mM ammonium formate pH 6.8).

A further data set addresses T3, GLP (Homo sapiens, UniProt Q9H9B1).
T3 construct: 894-1298; purchased RBC (read as Reaction Biology Corporation, named)
The data set is described as follows: Histone methyltransferase enzymatic assay, GLP. Type of data set: biochemical. The note with it: enzyme conc. 100 nM; read-out: IC50. How it is done:
as §1, §2

The target in another data set is T4, DOT1L (Homo sapiens, UniProt Q8TEK3).
T4 construct: 1-416; BRIC
T4 sequence (Q8TEK3 1-416): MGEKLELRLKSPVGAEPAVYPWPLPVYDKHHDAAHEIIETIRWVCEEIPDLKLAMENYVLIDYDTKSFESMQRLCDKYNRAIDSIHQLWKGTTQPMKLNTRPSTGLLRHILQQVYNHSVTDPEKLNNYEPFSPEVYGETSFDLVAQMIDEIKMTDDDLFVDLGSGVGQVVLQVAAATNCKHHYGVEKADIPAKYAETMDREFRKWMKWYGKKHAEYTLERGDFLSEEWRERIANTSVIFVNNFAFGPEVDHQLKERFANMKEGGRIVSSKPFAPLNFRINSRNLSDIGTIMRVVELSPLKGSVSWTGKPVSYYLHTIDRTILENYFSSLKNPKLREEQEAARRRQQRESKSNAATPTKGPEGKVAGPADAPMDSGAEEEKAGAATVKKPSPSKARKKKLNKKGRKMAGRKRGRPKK
Briefly: Histone methyltransferase enzymatic assay, DOT1L. Type of data set: biochemical. The note with it: enzyme conc. 2 nM. How it is done: as §1, §2

T3 sequence (Q9H9B1 894-1298): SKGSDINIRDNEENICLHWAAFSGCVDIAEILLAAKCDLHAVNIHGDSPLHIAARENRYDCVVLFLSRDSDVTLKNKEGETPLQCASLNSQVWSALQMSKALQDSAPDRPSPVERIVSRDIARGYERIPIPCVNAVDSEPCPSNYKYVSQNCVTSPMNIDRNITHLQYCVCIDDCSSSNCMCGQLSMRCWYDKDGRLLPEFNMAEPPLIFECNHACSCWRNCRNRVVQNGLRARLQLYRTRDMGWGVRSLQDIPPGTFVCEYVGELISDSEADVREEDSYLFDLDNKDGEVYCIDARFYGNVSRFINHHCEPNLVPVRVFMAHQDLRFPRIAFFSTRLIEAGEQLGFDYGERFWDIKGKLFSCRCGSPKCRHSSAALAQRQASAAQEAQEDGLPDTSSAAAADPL
T2 sequence (Q15910 2-746): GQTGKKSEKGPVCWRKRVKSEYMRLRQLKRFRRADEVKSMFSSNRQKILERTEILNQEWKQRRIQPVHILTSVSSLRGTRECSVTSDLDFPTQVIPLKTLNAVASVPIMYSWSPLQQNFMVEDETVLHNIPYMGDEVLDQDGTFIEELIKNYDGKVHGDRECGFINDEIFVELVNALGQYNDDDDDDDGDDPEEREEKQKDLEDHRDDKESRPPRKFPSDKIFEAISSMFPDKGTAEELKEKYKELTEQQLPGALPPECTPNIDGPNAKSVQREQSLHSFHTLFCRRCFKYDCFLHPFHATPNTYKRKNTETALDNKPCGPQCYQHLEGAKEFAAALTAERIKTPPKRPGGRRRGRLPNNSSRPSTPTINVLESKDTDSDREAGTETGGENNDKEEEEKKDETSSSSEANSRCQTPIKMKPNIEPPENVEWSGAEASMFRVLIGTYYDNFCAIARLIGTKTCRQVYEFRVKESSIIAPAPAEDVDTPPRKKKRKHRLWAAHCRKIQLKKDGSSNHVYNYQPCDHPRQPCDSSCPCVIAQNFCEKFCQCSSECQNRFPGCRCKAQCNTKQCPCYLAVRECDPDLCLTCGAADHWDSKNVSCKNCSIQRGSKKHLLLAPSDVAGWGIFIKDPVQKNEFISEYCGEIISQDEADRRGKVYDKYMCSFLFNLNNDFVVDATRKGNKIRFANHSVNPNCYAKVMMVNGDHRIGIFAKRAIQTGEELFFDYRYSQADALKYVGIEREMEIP
T2 sequence (O75530 2-441 partner limits assumed): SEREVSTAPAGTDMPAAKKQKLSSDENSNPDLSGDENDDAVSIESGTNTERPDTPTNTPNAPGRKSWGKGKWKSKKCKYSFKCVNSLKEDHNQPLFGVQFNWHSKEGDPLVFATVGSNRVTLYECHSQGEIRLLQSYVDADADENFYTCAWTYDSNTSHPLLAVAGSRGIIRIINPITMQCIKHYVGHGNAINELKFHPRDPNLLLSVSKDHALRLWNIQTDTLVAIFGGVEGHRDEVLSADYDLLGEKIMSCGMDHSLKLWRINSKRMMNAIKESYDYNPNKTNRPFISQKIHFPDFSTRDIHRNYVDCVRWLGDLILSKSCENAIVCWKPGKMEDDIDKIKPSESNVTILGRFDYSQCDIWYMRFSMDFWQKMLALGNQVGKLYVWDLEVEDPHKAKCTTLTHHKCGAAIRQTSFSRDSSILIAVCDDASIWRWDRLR
T2 sequence (Q15022 2-739 partner limits assumed): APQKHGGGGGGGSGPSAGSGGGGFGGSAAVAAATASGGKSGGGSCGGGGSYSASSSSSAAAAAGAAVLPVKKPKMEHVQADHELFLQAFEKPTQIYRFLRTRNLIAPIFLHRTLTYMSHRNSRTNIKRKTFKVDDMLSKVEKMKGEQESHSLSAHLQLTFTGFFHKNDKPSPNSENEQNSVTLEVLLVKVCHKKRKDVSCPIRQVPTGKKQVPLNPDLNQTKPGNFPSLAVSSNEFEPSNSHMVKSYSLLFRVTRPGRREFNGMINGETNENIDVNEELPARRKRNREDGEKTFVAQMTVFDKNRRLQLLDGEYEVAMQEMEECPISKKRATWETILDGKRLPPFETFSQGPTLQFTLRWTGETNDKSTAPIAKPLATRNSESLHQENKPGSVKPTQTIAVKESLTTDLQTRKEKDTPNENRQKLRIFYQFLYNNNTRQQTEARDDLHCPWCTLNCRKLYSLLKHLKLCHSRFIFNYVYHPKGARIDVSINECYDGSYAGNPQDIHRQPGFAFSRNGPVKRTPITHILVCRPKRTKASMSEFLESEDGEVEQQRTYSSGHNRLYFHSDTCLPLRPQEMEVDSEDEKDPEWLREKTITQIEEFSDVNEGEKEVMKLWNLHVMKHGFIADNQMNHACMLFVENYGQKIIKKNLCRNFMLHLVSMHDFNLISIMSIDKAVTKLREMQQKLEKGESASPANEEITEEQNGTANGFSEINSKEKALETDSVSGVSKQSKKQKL

Turning to `CCOC(=O)c1ccnc(CNCC(=O)N(CC)CCN(C)C)c1` [GS-5801], the “levels of HBV mRNA as measured by RNA-seq” value in data set [1] is “decreased after GS-5801 treatment in a dose and time dependent manner”.

`CCN(CCN(C)C)C(=O)CNCc1cc(C(=O)O)ccn1` [GS-080]: the IC50 was greater than 100 µM against PRMT4; greater than 100 µM on EZH2/EED/SUZ12; 1.7 µM against KDM3A (enzyme concentration 0.3 nM); greater than 100 µM at GLP; greater than 100 µM at DOT1L. Also, the “Fold Selectivity Compared to KDM5A” value at KDM3A (IC50 of KDM3A over KDM5A) is > 4,720 fold. Further, the Kp in data set [2] turned out to be 44.

The term IC50 denotes the concentration that inhibits the measured activity by half.
